Data reported in patent US20180256519A1, “COMPOSITION FOR PREVENTING OR TREATING MITOCHONDRIAL DISEASES CAUSED BY IMMUNOSUPPRESSANTS, AND IMMUNE DISEASES, CONTAINING METFORMIN” (THE CATHOLIC UNIVERSITY OF KOREA INDUSTRY-ACADEMIC …, priority 2015, published 2018).

Tests used:
IL-17 = IL-17 secretion by splenocytes in T cell activation conditions (ELISA); assay type: cell-based, C57BL/6 mice; conditions: metformin 1000 uM, rapamycin 100 nM; 3 days; anti-CD3 0.5 μg/ml; vs Nil
Procedure: (§1) Splenocytes obtained from normal C57BL/6 mice were added at 2×10^5 cells in the 96-well plate, and treated with metformin (1000 μM) or rapamycin (100 nM) according to experimental conditions, followed by incubation for 3 days, under anti-CD3 activation conditions (0.5 μg/ml). For MTT analysis, 3-(4,5-dimethyl-thiazol-2-yl)-2,5-diphenyltetrazolium bromide was added 4 hours before cell harvest, followed by incubation for 4 hours, and then each well was treated with DMSO, and the absorbance was measured at the wavelength of 540 nm.
The cells were treated with metformin (1000 uM) or rapamycin (100 nM) according to experimental conditions, followed by incubation for 3 days, and then the amount of IL-17 present in the culture liquid was measured by ELISA.

[1] = test system: LPS-stimulated splenocytes; experiment: Inflammatory cytokines secreted in LPS-stimulated splenocytes (ELISA); assay type: cell-based, C57BL/6 mice; conditions: LPS 100 ng/ml; metformin 1000 uM, rapamycin 100 nM; 3 days
Procedure: Splenocytes obtained from normal C57BL/6 mice were added into a 24-well plate (1×10^6 cells/well), and stimulated by LPS (100 ng/ml), and then treated with metformin (1000 uM) or rapamycin (100 nM) according to experimental conditions, followed by incubation for 3 days. […] Statistical analysis was conducted by using Graph prism (t-test, ANOVA), and values of p<0.05 were considered statistically significant.

[2] = test system: Splenocytes obtained from normal C57BL/6 mice; experiment: MTT non-specific cytotoxicity in T cell activation conditions; assay type: cell-based; conditions: metformin 1000 μM, rapamycin 100 nM; 3 days; anti-CD3 0.5 μg/ml
Procedure: as §1

[3] = test system: collagen-induced arthritis mouse models; experiment: Glucose tolerance test and insulin tolerance test in arthritis animal models; assay type: in vivo; conditions: arthritis mice after 12 weeks, rapamycin 1 mg/kg
Procedure: The intraperitoneal glucose tolerance test was performed by intraperitoneal injection of glucose at 1 g/kg of body weight after fasting for 12 hours. The insulin tolerance test was performed at 30 minutes interval after the subcutaneous injection of […] at 1 U/kg of body weight.

[4] = test system: Synovial cells isolated from patients with rheumatoid arthritis (RA); experiment: Measurement of mitochondrial respiration (oxygen consumption rate); assay type: cell-based, human; conditions: rapamycin 100 nM
Procedure: The present inventors examined the effect of metformin on rapamycin-induced mitochondrial respiration deterioration. The cells were treated with rapamycin (100 nM) alone or co-treated with rapamycin (100 nM) and metformin (1 mM), and then the mitochondrial respiratory rate was examined through the measurement of the oxygen consumption rate. Oligomycin and FCCP treatment conditions were the same.

Sprague-Dawley rats = experiment: Rapamycin-induced diabetic symptoms and metformin co-administration in rats (body weight, urine volume, IPGTT, ITT); assay type: in vivo, rat
Procedure: As experimental animals, Sprague-Dawley rats with 200-220 grams were used. The animals were fed with a 0.05% low-salt diet, and the experiment was conducted for a total of 6 weeks while drugs were administered according to experimental conditions (FIG. 5). […] Rapamycin dissolved in olive oil was subcutaneously injected into the rapamycin administered alone group (Rapamycin) and the co-administered group (Rapa+Met) at a dose of 0.3 mg/kg of body weight every day for six weeks. Metformin was orally administered at a dose of 250 mg/kg of body weight every day for 2.5 weeks from the 3.5 weeks of rapamycin administration. Distilled water (DW, 3 mL/kg) instead of metformin was orally administered into the rapamycin administered alone group and the control group. The body weight and 24-hr urine volume of the control and experimental groups were measured six weeks after the start of the experiment FIGS. 6A and 6B. The urine volume was measured in the metabolic cage. The animals of each group were tested for the intraperitoneal glucose tolerance test (IPGTT) and the insulin tolerance test (ITT), and the change in blood glucose level over time was observed FIGS. 7A, 7B, 8A and 8B). The intraperitoneal glucose tolerance test (IPGTT) was performed by intraperitoneal administration of 1.5 g/kg of body weight of glucose after fasting. The insulin resistance test was carried out such that the blood glucose level was measured at 30-min intervals after subcutaneous injection of insulin at 0.8 U/kg of body weight following 5-hr fasting. The quantitative index (area under the curve of glucose, AUCg) was derived using a graph of blood glucose level change per hour, and was expressed as a bar graph. Data were expressed as mean value±standard deviation, and statistical significance was determined by student's t-test.

NIH3T3 cells [5] = experiment: Analysis of mitochondrial membrane potential (JC-1 staining); assay type: cell-based; conditions: 72-hr incubation; rapamycin 1 nM, metformin 200 uM or 1 mM
Procedure: For JC-1 staining, the cells were incubated in JC-1, which had been diluted in DMEM to a final concentration of 100 nM, at 37 °C for 15 minutes, and then the exchange into new DMEM medium was conducted, followed by observation by fluorescent microscopy.

IFN-γ = IFN-γ secretion by allogeneic reactive T cells in mixed lymphocyte reaction (ELISA); assay type: cell-based, mouse (Balb/c, C57BL/6); conditions: metformin 1000 μM, rapamycin 1 nM or 100 nM; 3 days
[6] = test system: allogeneic reactive T cells; experiment: Allogeneic reactive T cell proliferation, mixed lymphocyte reaction ([3H]-thymidine uptake); assay type: cell-based, mouse (Balb/c, C57BL/6); conditions: metformin 1000 uM, rapamycin 1 nM or 100 nM; 3 days
Procedure: CD4+ T cells (2×10^5 cells/well) from normal donors (Balb/c, responder) and splenocytes (2×10^5 cells/well) with T cells removed, which were derived from irradiated recipients (syngeneic) or donors (C57BL/ 6, stimulator, allogeneic), were added to each well of a 96-well plate, followed by mixed incubation. Here, for the allogeneic reaction, the cells were treated with metformin (1000 uM) and rapamycin (1 nM or 100 nM) according to experimental conditions, followed by incubation for 3 days. On the last day of the incubation, [^3H]-thymidine was added, followed by additional incubation for 18 hours, and the [^3H]-thymidine uptake of cells was measured by the Liquid Scintillation Counter (Beckman, USA), and expressed as cpm. Statistical assay was conducted by using Graph prism (t-test, ANOVA), and values of p<0.05 were considered statistically significant.

[7] = test system: LPS-stimulated splenocytes; experiment: Immunoglobulin (IgG) in culture liquid of LPS-stimulated splenocytes (ELISA); assay type: cell-based, mouse; conditions: LPS 100 ng/ml; metformin 1000 uM, rapamycin 100 nM
Procedure: Splenocytes obtained from normal C57BL/6 mice were added into a 24-well plate (1×10^6 cells/well), and stimulated by LPS (100 ng/ml), and then treated with metformin (1000 uM) or rapamycin (100 nM) according to experimental conditions, followed by incubation for 3 days. […] Statistical analysis was conducted by using Graph prism (t-test, ANOVA), and values of p<0.05 were considered statistically significant.
Thereafter, the level of IgG present in the culture liquid was measured by ELISA.

NIH3T3 cells [8] = experiment: Analysis of mitochondrial content (MitoTracker staining); assay type: cell-based; conditions: 72-hr incubation; rapamycin 1 nM, metformin 200 uM or 1 mM
Procedure: The mitochondria were observed by fluorescent microscopy for each experimental condition. Specifically, the MitoTracker was diluted in DMEM medium to a concentration of 100 nM, and then added on the NIH3T3 plate, followed by incubation at 37° C. for 15 minutes and washing with PBS. Thereafter, for α-tubulin staining, the cells were fixed with acetone and methanol (1:1) for 15 minutes, and then washed with PBS for 15 minutes.

Treg cells = experiment: Treg cell activity in splenocytes under anti-CD3 activation (flow cytometry); assay type: cell-based, C57BL/6 mice; conditions: metformin 1000 μM, rapamycin 100 nM; 3 days; anti-CD3 0.5 μg/ml
Procedure: Splenocytes obtained from normal C57BL/6 mice were added at 1×10^6 cells in the 24-well plate, and treated with metformin (1000 μM) or rapamycin (100 nM) according to experimental conditions, followed by incubation for 3 days, under anti-CD3 activation conditions (0.5 μg/ml). For flow cytometry, the cells were treated with anti-CD4-percp antibody and anti-CD25-APC antibody, followed by incubation at 4[…] for 30 minutes, and then the cells were subjected to permeabilization, and then reacted with anti-Foxp3-PE. For analysis of Treg activity, the cells expressing the CD4+CD25+Foxp3+ marker were gated and analyzed. The results were expressed by a bar graph showing the proportion of Foxp3+CD25+ cells occupying in the cultured all CD4+ cells.

[9] = rapamycin 0.3 mg/kg s.c. daily 6 weeks, metformin 250 mg/kg oral daily from 3.5 weeks, vs control group (VH)

CO[C@H]1C[C@@H]2CC[C@@H](C)[C@@](O)(O2)C(=O)C(=O)N2CCCC[C@H]2C(=O)O[C@H]([C@H](C)C[C@@H]2CC[C@@H](O)[C@H](OC)C2)CC(=O)[C@H](C)/C=C(\C)[C@@H](O)[C@@H](OC)C(=O)[C@H](C)C[C@H](C)/C=C/C=C/C=C/1C [rapamycin]
amount of IL-17 present in the culture liquid (IL-17): reduced
concentration of IL-6 present in the culture liquid [1]: reduced
concentration of TNF-α present in the culture liquid [1]: reduced
non-specific cytotoxicity (MTT) [2]: no non-specific cytotoxicity
blood glucose level in intraperitoneal glucose tolerance test ([3]; glucose 1 g/kg i.p. after 12 h fasting, metformin 50 mg/kg): the highest
glucose level in insulin tolerance test, start point of measurement [3]: the highest
blood glucose level in insulin tolerance test, after the start point ([3]; metformin 50 mg/kg, vs control group (Vehicle)): maintained at similar levels
increase in mitochondrial respiratory rate by FCCP ([4]; FCCP 3 uM, metformin 1 mM): remarkably low
mitochondrial respiration capacity (oxygen consumption rate) ([4]; before the treatment with oligomycin, vs control group): reduced respiration capacity compared with the control group
blood glucose level in intraperitoneal glucose tolerance test (IPGTT) (Sprague-Dawley rats; glucose 1.5 g/kg i.p. after fasting, rapamycin 0.3 mg/kg, metformin 250 mg/kg): highest blood glucose level among the three groups
blood glucose level in insulin tolerance test (ITT) (Sprague-Dawley rats; insulin 0.8 U/kg s.c. after 5-hr fasting, rapamycin 0.3 mg/kg, metformin 250 mg/kg): highest blood glucose level among the three groups
24-hr urine volume (Sprague-Dawley rats; [9]): significantly increased
body weight (Sprague-Dawley rats; [9]): significant reductions
mitochondrial membrane potential (JC-1 staining) (NIH3T3 cells [5]): not normally maintained
secretion of IFN-γ (IFN-γ): reduced
allogeneic reactive T cell proliferation ([3H]-thymidine uptake, cpm) [6]: reduced the cpm values
concentration of immunoglobulin (IgG) present in the culture liquid [7]: reduced
mitochondrial content (MitoTracker) (NIH3T3 cells [8]): reduced
Treg activity (proportion of Foxp3+CD25+ cells in CD4+ cells) (Treg cells): increased

CN(C)C(=N)NC(=N)N [metformin]
amount of IL-17 present in the culture liquid (IL-17): reduced
concentration of IL-6 present in the culture liquid [1]: reduced
concentration of TNF-α present in the culture liquid [1]: reduced
non-specific cytotoxicity (MTT) [2]: no non-specific cytotoxicity
secretion of IFN-γ (IFN-γ): reduced
allogeneic reactive T cell proliferation ([3H]-thymidine uptake, cpm) [6]: reduced the cpm values
concentration of immunoglobulin (IgG) present in the culture liquid [7]: reduced
Treg activity (proportion of Foxp3+CD25+ cells in CD4+ cells) (Treg cells): increased
